Legend:
Format in all cases: functional
Onchocerca lienalis [1] = assay: MMV: Percent motility assay at a compound concentration of 1.25e-5 M. Activity score legend: 3: Active, 2: Moderately active; 1: Inactive, 0: Toxic; settings: at 12.5 µM
Onchocerca lienalis [2] = assay: MMV: Percent motility assay at a compound concentration of 3.1e-6 M. Activity score legend: 3: Active, 2: Moderately active; 1: Inactive, 0: Toxic; settings: at 3.1 µM
Onchocerca lienalis [3] = assay: MMV: Percent motility assay at a compound concentration of 1.9e-7 M. Activity score legend: 3: Active, 2: Moderately active; 1: Inactive, 0: Toxic; settings: at 0.19 µM
Onchocerca lienalis [4] = assay: MMV: Percent motility assay at a compound concentration of 7.8e-7 M. Activity score legend: 3: Active, 2: Moderately active; 1: Inactive, 0: Toxic; settings: at 0.78 µM

Structure (SMILES)	Motility (Onchocerca lienalis [1]) [%]	Motility (Onchocerca lienalis [2]) [%]	Motility (Onchocerca lienalis [3]) [%]	Motility (Onchocerca lienalis [4]) [%]
O=C(Nc1ccc(Cl)c(Cl)c1)Nc1ccc(Cl)c(Cl)c1	100	100	100	100
COc1ccc(C2c3ccc4ccccc4c3Oc3ncn(CCCN(C)C)c(=N)c32)cc1 (centres undefined)	100	100	100	100
N=c1n(CCN2CCCCC2)c2ccccc2n1CC(=O)c1ccc(Cl)c(Cl)c1	100	100	100	100
Nc1nc(Nc2cccc(F)c2)nc2ccccc12	100	100	100	100
COc1ccc(/C=C2/SC(=Nc3ccccc3)NC2=O)cc1	100	100	100	100
COc1ccc(-c2nc(N3CCN(C(=O)C4CCCCC4)CC3)c3c4c(sc3n2)CCCC4)cc1	100	100	100	100
O=C(NC1CCN(Cc2ccccc2)CC1)c1cc2nc(-c3ccc(Cl)s3)cc(C(F)(F)F)n2n1	100	100	100	100
Cc1sc(NC(=O)c2ccccc2)c(C(c2cccs2)N2CCN(c3ccccc3)CC2)c1C (centres undefined)	100	100	100	100
CCOC(=O)c1c(C)n(-c2ccccc2)c2ccc(OC(=O)c3cc(OC)c(OC)c(OC)c3)cc12	100	100	100	100
COc1cc(C(=O)Nc2nc3c(cc4c5c(cccc53)CC4)s2)cc(OC)c1OC	100	100	100	100
COc1ccc(CCN2C(=O)c3[nH]nc(-c4cc(Cl)c(C)cc4O)c3C2c2ccccc2F)cc1 (centres undefined)	100	100	100	100
N#Cc1nc(Cc2cccc3ccccc23)oc1N1CCN(C(c2ccccc2)c2ccccc2)CC1	100	100	100	100
COc1cc(C(=O)Nc2ccc(-c3nc4ccccc4[nH]3)cc2)cc(OC)c1OC	100	100	100	100
CCOc1ccc(N2C(N)=NC(N)=NC2(C)C)cc1.Cl	100	100	100	100
COc1cccc(Nc2nc(N)c3ccccc3n2)c1.Cl	100	100	100	100
Cc1ccc(C(=O)c2oc3ccc4c(C)cc(=O)oc4c3c2C)cc1	100	100	100	100
CCCCCCc1cc2cc(-c3csc(C=Cc4ccccc4)n3)c(=O)oc2cc1O	100	100	100	100
O=C(CCl)NCCOc1ccc(Cl)cc1Cl	100	100	100	100
Oc1ccc(-c2nc(-c3ccc4oc5ccc(-c6[nH]c(-c7ccc(O)cc7)nc6-c6ccccc6)cc5c4c3)c(-c3ccccc3)[nH]2)cc1	100	100	100	100
CC(Oc1ccc(NC(=O)c2cccs2)cc1)C(=O)c1ccc(Cl)cc1 (centres undefined)	100	100	100	100
CCOc1ccc(CN2CCN(CC(O)COc3ccc(OCC(O)CN4CCN(Cc5ccc(OCC)cc5)CC4)cc3)CC2)cc1 (centres undefined)	100	100	100	100
CCCCNc1nc(NC(C)(C)C)nc(NC(C)(C)C)n1	100	100	100	100
COc1ccc(CNC(=O)c2cc3c(=O)n4ccccc4nc3n(CCc3ccccc3)c2=N)cc1	100	100	100	100
COc1ccc(CCn2c(=N)c(C(=O)NCc3cccnc3)cc3c(=O)n4cccc(C)c4nc32)cc1	100	100	100	100
Cl.Cn1c(=O)n(C)c2cc(CNCCNc3ccnc4cc(Cl)ccc34)ccc21	100	100	100	100
CCOc1ccc2nc(C)cc(Nc3ccc(N(C)C)cc3)c2c1.Cl	100	100	100	100

Structure (SMILES)	Motility (Onchocerca lienalis [1]) [%]	Motility (Onchocerca lienalis [2]) [%]	Motility (Onchocerca lienalis [3]) [%]	Motility (Onchocerca lienalis [4]) [%]
COc1ccc(Nc2cc(C)nc(NCc3ccccc3)n2)cc1	66.66	100	100	100
COc1ccc(C=C2SC(Nc3ccc(F)cc3)=NC2=O)c(OC)c1	100	100	100	100
Oc1ccc2ccccc2c1CNc1nc2ccccc2[nH]1	100	100	100	100
O=C1c2ccc3c4c(ccc(c24)C(=O)N1CCCCO)C(=O)N(CCCCO)C3=O	100	100	100	100
O=C(Nc1ccc(-c2nc3cc(NC(=O)c4ccc(Cl)cc4)ccc3[nH]2)cc1)c1ccc(Cl)cc1	100	100	100	100
CCOC(=O)c1cnc2ccc(OC)cc2c1Nc1ccc(N2CCN(C)CC2)cc1	100	100	100	100
COc1ccccc1C(=O)ON=C(N)Cc1cccc2ccccc12	100	100	100	100
COc1ccc(C(=O)C(CCC(CNC(C)(C)C)C(=O)c2ccc(OC)cc2)CNC(C)(C)C)cc1 (centres undefined)	100	100	100	100
CN1C=C(c2ccc3ccccc3n2)C(c2c[nH]c3ccccc23)c2ccccc21 (centres undefined)	33.33	100	100	100
Oc1c(C(Nc2ccccn2)c2cccc(Oc3ccccc3)c2)ccc2cccnc12 (centres undefined)	6.66	100	100	100
COc1cc(-c2nc(-c3ccccc3)c(-c3ccccc3)[nH]2)cc(OC)c1O	100	100	100	100
OC(CNC1CCCCC1)Cn1c2ccc(I)cc2c2cc(I)ccc21 (centres undefined)	100	100	100	100
COc1cc(CNCCc2ccc(Cl)cc2)cc(OC)c1O	100	100	100	100
c1ccc(CNc2nc(Nc3ccccc3)nc3ccccc23)cc1	0	100	100	100
CCOc1ccc(Nc2ccnc3cc(Cl)ccc23)cc1	100	100	100	100
Oc1ccc(Br)cc1CN1CCN(Cc2ccc(Cl)cc2)CC1	100	100	100	100
CCOc1ccc2nc(C)cc(Nc3ccc(Br)cc3)c2c1	100	100	100	100
COc1cc2c3cc1Oc1c(OC)c(OC)cc4c1C(Cc1ccc(O)c(c1)Oc1ccc(cc1)CC3N(C)CC2)N(C)CC4.Cl (centres undefined)	100	100	100	100
Br.Cc1ccc(C)c(-c2csc(Nc3ccc(C)c(C)c3)n2)c1	100	100	100	100
COc1ccc2sc(N(Cc3cccnc3)C(=O)c3ccc(C#N)cc3)nc2c1	100	100	100	100
CC1CC2=C(CC1CNCCCN(C)C)C(C)(C)CCC2 (centres undefined)	100	100	100	100
CCOC(=O)c1cnc2ccc(OC)cc2c1NCc1ccccc1	100	100	100	100
CCOC(=O)C1=CN(C)C=C(C(=O)OCC)C1c1cc(Br)c(OCC)c(OC)c1	100	100	100	100
CC(C)(C)c1ccc(C2CC3=Nc4ccccc4N(C(=O)c4ccccc4Cl)C(c4ccc(F)cc4)C3=C(O)C2)cc1 (centres undefined)	100	100	100	100
CN1CCN(c2nc(Nc3ccc(O)cc3)nc3ccccc23)CC1.Cl	100	100	100	100
